How the values were obtained:
[1] = system: Veratrum californicum plant suspension cell lines; experiment: Elicitation of steroid alkaloid production in plant suspension cell lines; format: cell-based
Experimental: 100 μl 0.5% SDS solution and 50 μl 25% NH4OH was added to 100 mg FW frozen cell powder. After mixing 1 ml toluene was added and the solution was extracted for 10 min in an ultrasonic bath. Following centrifugation the organic layer was collected and the sample residue was twice re-extracted with another 1 ml toluene. The organic phases were combined and the solvent was evaporated to dryness. The residue was then quantitatively transferred to a GC vial and re-dissolved in 80 μl CH2Cl2. An aliquot was directly injected into the GC.
GC separation was performed using an Agilent 6890 system and was monitored with an Agilent 5973 Network MS Quadropole. The selected ion mode function was applied to record the characteristic molecular ions (cyclopamine: 124, 396; jervine: 110, 124). Within a set of samples the response values for the specific ions were used to compare relative levels of alkaloids. A mixture of commercially available reference compounds (cyclopamine and jervine) was routinely analyzed for comparison of retention times and fragmentation.

[2] = system: suspension line B; experiment: Growth optimization of the suspension cell line B; format: cell-based, Veratrum californicum; conditions: AA medium, 4 mg/l
Experimental: Growth of suspension line B on L2-medium with 2,4-D (2.5 mg/l) was further optimized. About 3 g (fw) of cells were transferred to an Erlenmeyer flask containing 50 ml liquid AA medium (with 2,4-D and NAA at levels of 2, 4 and 7 mg/l or without hormones), and incubated in the light (light intensity about 30-40 […] Osram cool white/Osram fluora, 1:1 on watt basis) on a rotary shaker (130 rpm) at 25° C. The volume of the liquid medium was added up to 100 ml after the second subculture. The suspensions were sub-cultured at three weeks intervals by replacing about half of the old culture with an equal volume of fresh medium.

[3] = system: Veratrum californicum embryos; experiment: Embryogenic callus induction from mature embryos (% of embryogenesis); format: cell-based
Experimental: (§1) Seeds of Veratrum californicum Durand were peeled, rinsed with 94% ethanol and surface sterilized with 1% (v/v) sodium hypochlorite supplemented with a few drops of Tween20 for 10 minutes, and finally rinsed three times with sterile water. Seeds were allowed to germinate for 2 days at 22° C. in the dark on moist filter paper. Embryos were excised and cultured on MS medium (11) solidified with gelrite (3% w/v) and supplemented with 1 mg/l kinetin and 1 mg/l NAA in the dark at 22° C. Produced calli were subcultured to fresh plates in two to three weeks intervals. After four months of culture calli were transferred to L2-medium (12) solidified with gelrite (3% w/v) and supplemented with 2.5 mg/l 2,4-D and were subsequentially subcultured to fresh plates at one month intervals. Embryogenic callus cultures from isolated V. californicum embryos were induced by the following media: Basal media MS (11), R2M (13), L2 (12), modified MS medium (mMS, consisting of MS basic salts and vitamins, 146 mg/l glutamine, 200 mg/l casein hydrolysate) and AA (14) supplemented with different hormones (picloram, NAA, 2,4-D, dicamba) at three levels (2, 4 and 7 mg/l) all solidified with gelrite (3% w/v). The cultures were kept in the dark, at 25° C. and embryogenic calli were subcultured at one month intervals.
Frequencies of embryos producing embryogenic calli and frequencies of regenerated green and albino plants were recorded. Oxidative browning percentages of embryos were calculated. Completely randomized designs (CRD) were used in the experiments. Each Petri-dish with 20 embryos was considered an experimental unit and each treatment contained five replicates. Data analyses with two treatment levels were carried out by t-test, and with more than two treatment levels by the ANOVA procedure. Multi-range comparisons were performed by the LSD test.

[4] = system: Veratrum californicum embryos; experiment: as above; format: cell-based; conditions: medium 502; data from 5 replicates
[5] = system: sheep; conditions: ewes consuming Veratrum during early pregnancy; cited from earlier work
[6] = system: suspension lines A, B and C; experiment: Cryopreservation of the cell suspension lines A, B and C; format: cell-based, Veratrum californicum; conditions: 5% (v/v), after osmotic dehydration
Experimental: The suspension lines A, B and C were cryopreserved by using a Kryo10 device (Planer Biomed). The suspensions were subcultured 4 to 5 days prior to the start of the cryopreservation experiment. A dehydration procedure as follows was applied: I) Sugar alcohol concentration of the suspension was adjusted to 0.2 M by adding five times small aliquots of 4 M sorbitol during a period of 30 minutes. After sorbitol additions, the suspensions were incubated under normal growth conditions for 24 hours (in the dark, 25° C., on a rotary shaker (90 rpm)). II) Sugar alcohol concentration was adjusted to 0.4 M by 4 M sorbitol and incubations were carried out as in step I). The dehydrated suspensions were transferred to ice and DMSO was added to reach 5% (v/v) concentration. Cell:medium ratio was adjusted to 1:2 and suspensions were packed into ampulles. Protectant-treated suspensions were kept on ice for a period of 100 minutes. A freezing protocol as follows was applied: I) A rate of 10° C./min to reach 0° C. was followed by II) incubation at 0° C. for 20 minutes. The freezing was finalized by using III) a rate of 1° C./min to reach −40° C. and then IV) samples were immersed in liquid nitrogen. Thawing of cryopreserved samples was carried out by immersing the suspension ampulles straight from liquid nitrogen to a 40° C. water bath for 2 minutes. […] Cell division and growth of the cultures were monitored.

[7] = system: Veratrum californicum embryos; experiment: Phenolic exudation / oxidative browning during embryo culture; format: cell-based; conditions: mMS medium containing picloram
Experimental: as §1, with “The cultures were kept in the dark, at 25° C. and embryogenic calli were subcultured at one month intervals.” left out
Frequencies of embryos producing embryogenic calli and frequencies of regenerated green and albino plants were recorded. Oxidative browning percentages of embryos were calculated. […]

[8] = system: Sonic hedgehog signal transduction; conditions: cited from earlier work
[9] = medium AA, data from 5 replicates
[10] = medium MS, data from 5 replicates
[11] = medium R2M, data from 5 replicates
[12] = medium mMS, data from 5 replicates
[13] = growth regulator 2 mg/l, average over mMS, R2M, AA
[14] = growth regulator 2 mg/l, medium AA
[15] = growth regulator 2 mg/l, medium R2M
[16] = growth regulator 2 mg/l, medium mMS
[17] = growth regulator 4 mg/l, average over mMS, R2M, AA
[18] = growth regulator 4 mg/l, medium AA
[19] = growth regulator 4 mg/l, medium R2M
[20] = growth regulator 4 mg/l, medium mMS
[21] = growth regulator 7 mg/l, average over mMS, R2M, AA
[22] = growth regulator 7 mg/l, medium AA
[23] = growth regulator 7 mg/l, medium R2M
[24] = growth regulator 7 mg/l, medium mMS

With `CC/C=C\CC1C(=O)CCC1CC(=O)OC` (centres unmarked) [methyl-jasmonate, methyl jasmonate] as the compound, how does the “production of cyclopamine and jervine upon elicitation” value [1] read?
Its value is “showed the production of cyclopamine and jervine”.

With `O=C(O)COc1ccc(Cl)cc1Cl` [2,4-D] as the compound, how does the “growth of the suspension line B” value [2] read?
Its value is “improved the growth”.

And the “% of embryogenesis, Average” value ([3]; average over the five media)?
The value was 52.33c %.

And the “% of embryogenesis” value [3, 9]?
The value was 43.43%.

And the “% of embryogenesis” value [3, 10]?
Its value is 50.52%.

And the “% of embryogenesis” value [3, 11]?
Its value is 58.85%.

What about the “% of embryogenesis” value [3, 12] of the same compound?
The value was 55.32%.

And the “% of embryogenesis” value [4]?
Its value is 53.41%.

For `O=C(O)Cc1cccc2ccccc12` [NAA, 1-naphthaleneacetic acid], which “growth of the suspension line B” value [2] is on record?
Its value is “improved the growth”.

And the “% of embryogenesis, Average” value ([3]; average over the five media)?
Its value is 67.70a %.

What about the “% of embryogenesis, Average” value [3, 13] of the same compound?
The value was 59.35b %.

What about the “% of embryogenesis” value [3, 14] of the same compound?
Its value is 48.95%.

And the “% of embryogenesis” value [3, 15]?
The value was 63.75%.

And the “% of embryogenesis” value [3, 16]?
The value was 65.35%.

And the “% of embryogenesis, Average” value [3, 17]?
Its value is 70.74a %.

What about the “% of embryogenesis” value [3, 18] of the same compound?
Its value is 64.21%.

And the “% of embryogenesis” value [3, 19]?
Its value is 74.32%.

And the “% of embryogenesis” value [3, 20]?
The value was 73.67%.

And the “% of embryogenesis, Average” value [3, 21]?
The value was 72.15a %.

What about the “% of embryogenesis” value [3, 22] of the same compound?
Its value is 68.06%.

What about the “% of embryogenesis” value [3, 23] of the same compound?
The value was 73.01%.

What about the “% of embryogenesis” value [3, 24] of the same compound?
The value was 75.37%.

What about the “% of embryogenesis” value [3, 9] of the same compound?
The value was 62.04%.

What about the “% of embryogenesis” value [3, 10] of the same compound?
The value was 62.62%.

What about the “% of embryogenesis” value [3, 11] of the same compound?
Its value is 73.95%.

What about the “% of embryogenesis” value [3, 12] of the same compound?
Its value is 74.93%.

And the “% of embryogenesis” value [4]?
The value was 64.98%.

What does the source list for `COc1c(Cl)ccc(Cl)c1C(=O)O` [Dicamba, dicamba]?
% of embryogenesis, Average ([3]; average over the five media): 55.44bc %; % of embryogenesis [3, 9]: 51.24%; % of embryogenesis [3, 10]: 50.90%; % of embryogenesis [3, 11]: 58.67%; % of embryogenesis [3, 12]: 60.79%; % of embryogenesis [4]: 55.61%

With `CC1=C2C(=O)[C@H]3[C@@H](CC=C4C[C@@H](O)CC[C@@]43C)[C@@H]2CC[C@]12O[C@@H]1C[C@H](C)CN[C@H]1[C@H]2C` [jervine] as the compound, how does the teratogenicity [5] read?
Its teratogenicity is “responsible teratogens”.

With `C[S+](C)[O-]` [DMSO] as the compound, how does the cryoprotectant effect [6] read?
Its cryoprotectant effect is “sufficient as a cryoprotectant”.

What does the source list for `Nc1c(Cl)c(Cl)nc(C(=O)O)c1Cl` [Picloram, picloram]?
percentage of embryos producing phenolic exudates [7]: 18.9%; % of embryogenesis, Average ([3]; average over the five media): 70.82a %; % of embryogenesis, Average [3, 13]: 63.24B %; % of embryogenesis [3, 14]: 51.43%; % of embryogenesis [3, 15]: 68.53%; % of embryogenesis [3, 16]: 69.76%; % of embryogenesis, Average [3, 17]: 72.96A %; % of embryogenesis [3, 18]: 62.59%; % of embryogenesis [3, 19]: 75.73%; % of embryogenesis [3, 20]: 80.57%; % of embryogenesis, Average [3, 21]: 72.50A %; % of embryogenesis [3, 22]: 59.97%; % of embryogenesis [3, 23]: 76.07%; % of embryogenesis [3, 24]: 81.46%; % of embryogenesis [3, 9]: 59.75%; % of embryogenesis [3, 10]: 69.32%; % of embryogenesis [3, 11]: 75.40%; % of embryogenesis [3, 12]: 81.33%; % of embryogenesis [4]: 68.32%

For `CC1=C2C[C@H]3[C@@H](CC=C4C[C@@H](O)CC[C@@]43C)[C@@H]2CC[C@]12O[C@@H]1C[C@H](C)CN[C@H]1[C@H]2C` [cyclopamine], which “effect on Sonic hedgehog signal transduction” value [8] is on record?
The value was “selectively blocks Sonic hedgehog signal transduction”.

What about the teratogenicity [5] of the same compound?
Its teratogenicity is “responsible teratogens”.
